{"source": "PubChem BioAssay AID220", "about": "(DTP/NCI, 2004)", "test_system": "CD8F1 mice, subcutaneous mammary adenocarcinoma, T/C%", "experiment": "NCI In Vivo Anticancer Drug Screen. Data for tumor model Mammary Adenocarcinoma CD8F1 (subcutaneous) in CD8F1", "details": "higher = larger tumour", "how_it_was_run": "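Transplantable tumors were established in mice, animals were dosed with compound or vehicle, and survival or tumor size was then measured in both groups. The treated result was divided by the control result.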", "note": "Several values for one entry are separate records, joined by “and”; a condition that tells them apart may be missing. Equal values may be shown once. Records with an inconclusive call do not appear."}
{"molecule": "C[n+]1ccc2cc(N)c3c4ccccc4sc3c2c1", "values": [{"measurement": "T/C", "setting": "endpoint: median tumor weight (est.), dose: 1.56 mg/kg/injection, schedule: Q07DX004 (ip), vehicle: saline with Tween-80", "value": "83 % of control"}, {"measurement": "T/C", "setting": "endpoint: median tumor weight (est.), dose: 3.12 mg/kg/injection, schedule: Q07DX004 (ip), vehicle: saline with Tween-80", "value": "121 % of control"}, {"measurement": "T/C", "setting": "endpoint: median tumor weight (est.), dose: 6.25 mg/kg/injection, schedule: Q07DX004 (ip), vehicle: saline with Tween-80", "value": "65 % of control"}, {"measurement": "T/C", "setting": "endpoint: median tumor weight (est.), dose: 12.5 mg/kg/injection, schedule: Q07DX004 (ip), vehicle: saline with Tween-80", "value": "105 % of control"}, {"measurement": "T/C", "setting": "endpoint: median tumor weight (est.), dose: 25.0 mg/kg/injection, schedule: Q07DX004 (ip), vehicle: saline with Tween-80", "value": "110 % of control"}]}
{"molecule": "Nc1cc(Cl)c2[nH]cnc2n1", "values": [{"measurement": "T/C", "setting": "endpoint: median tumor weight change, dose: 62.5 mg/kg/injection, schedule: Q01DX001 (ip), vehicle: distilled water + Tween-80", "value": "76 % of control"}, {"measurement": "T/C", "setting": "endpoint: median tumor weight change, dose: 62.5 mg/kg/injection, schedule: Q01DX001 (ip), vehicle: water", "value": "111 % of control"}, {"measurement": "T/C", "setting": "endpoint: median tumor weight change, dose: 125.0 mg/kg/injection, schedule: Q01DX001 (ip), vehicle: distilled water + Tween-80", "value": "88 % of control"}, {"measurement": "T/C", "setting": "endpoint: median tumor weight change, dose: 125.0 mg/kg/injection, schedule: Q01DX001 (ip), vehicle: water", "value": "100 % of control"}, {"measurement": "T/C", "setting": "endpoint: median tumor weight change, dose: 250.0 mg/kg/injection, schedule: Q01DX001 (ip), vehicle: distilled water + Tween-80", "value": "58 % of control"}, {"measurement": "T/C", "setting": "endpoint: median tumor weight change, dose: 250.0 mg/kg/injection, schedule: Q01DX001 (ip), vehicle: water", "value": "92 % of control"}, {"measurement": "T/C", "setting": "endpoint: median tumor weight change, dose: 500.0 mg/kg/injection, schedule: Q01DX001 (ip), vehicle: distilled water + Tween-80", "value": "82 % of control"}, {"measurement": "T/C", "setting": "endpoint: median tumor weight change, dose: 500.0 mg/kg/injection, schedule: Q01DX001 (ip), vehicle: water", "value": "73 % of control"}, {"measurement": "T/C", "setting": "endpoint: median tumor weight change, dose: 1000.0 mg/kg/injection, schedule: Q01DX001 (ip), vehicle: distilled water + Tween-80", "value": "42 % of control"}, {"measurement": "T/C", "setting": "endpoint: median tumor weight change, dose: 1000.0 mg/kg/injection, schedule: Q01DX001 (ip), vehicle: water", "value": "80 % of control"}]}
{"molecule": "CCN(CC)c1ccc2[nH]c3c(C(N)=O)cc(=O)c(=O)c=3oc2c1", "values": [{"measurement": "T/C", "setting": "endpoint: median tumor weight change, dose: 62.5 mg/kg/injection, schedule: Q01DX001 (ip), vehicle: saline with Tween-80", "value": "92 % of control"}, {"measurement": "T/C", "setting": "endpoint: median tumor weight change, dose: 250.0 mg/kg/injection, schedule: Q01DX001 (ip), vehicle: saline with Tween-80", "value": "121 % of control"}, {"measurement": "T/C", "setting": "endpoint: median tumor weight change, dose: 500.0 mg/kg/injection, schedule: Q01DX001 (ip), vehicle: saline with Tween-80", "value": "28 % of control"}]}
{"molecule": "[N-]=[N+]=C1N=CN=C1c1ncn[nH]1", "values": [{"measurement": "T/C", "setting": "endpoint: median tumor weight (est.), dose: 3.12 mg/kg/injection, schedule: Q07DX005 (ip), vehicle: carboxymethylcellulose (CMC)", "value": "91 % of control"}, {"measurement": "T/C", "setting": "endpoint: median tumor weight (est.), dose: 6.25 mg/kg/injection, schedule: Q07DX005 (ip), vehicle: carboxymethylcellulose (CMC)", "value": "95 % of control"}]}
{"molecule": "O=c1[nH]c(=O)n(C2CC(O)C(CO)O2)cc1F", "note": "(stereo unspecified)", "values": [{"measurement": "T/C", "setting": "endpoint: mean tumor weight, dose: 25.0 mg/kg/injection, schedule: Q01DX009 (ip), vehicle: saline", "value": "50 % of control"}, {"measurement": "T/C", "setting": "endpoint: mean tumor weight, dose: 50.0 mg/kg/injection, schedule: Q01DX009 (ip), vehicle: saline", "value": "20 % of control"}, {"measurement": "T/C", "setting": "endpoint: mean tumor weight, dose: 100.0 mg/kg/injection, schedule: Q01DX009 (ip), vehicle: saline", "value": "30 % of control"}, {"measurement": "T/C", "setting": "endpoint: mean tumor weight, dose: 125.0 mg/kg/injection, schedule: Q07DX005 (ip), vehicle: saline", "value": "585 % of control"}, {"measurement": "T/C", "setting": "endpoint: mean tumor weight, dose: 125.0 mg/kg/injection, schedule: Q07DX006 (ip), vehicle: saline", "value": "49 % of control"}, {"measurement": "T/C", "setting": "endpoint: mean tumor weight, dose: 250.0 mg/kg/injection, schedule: Q07DX005 (ip), vehicle: saline", "value": "180 % of control"}, {"measurement": "T/C", "setting": "endpoint: mean tumor weight, dose: 250.0 mg/kg/injection, schedule: Q07DX006 (ip), vehicle: saline", "value": "6 % of control"}, {"measurement": "T/C", "setting": "endpoint: mean tumor weight, dose: 500.0 mg/kg/injection, schedule: Q07DX005 (ip), vehicle: saline", "value": "473 % of control"}, {"measurement": "T/C", "setting": "endpoint: median tumor weight (est.), dose: 12.5 mg/kg/injection, schedule: Q07DX005 (ip), vehicle: saline", "value": "97 % of control"}, {"measurement": "T/C", "setting": "endpoint: median tumor weight (est.), dose: 25.0 mg/kg/injection, schedule: Q07DX005 (ip), vehicle: saline", "value": "116 % of control"}, {"measurement": "T/C", "setting": "endpoint: median tumor weight (est.), dose: 50.0 mg/kg/injection, schedule: Q07DX005 (ip), vehicle: saline", "value": "72 % of control and 81 % of control"}, {"measurement": "T/C", "setting": "endpoint: median tumor weight (est.), dose: 100.0 mg/kg/injection, schedule: Q07DX005 (ip), vehicle: saline", "value": "62 % of control and 78 % of control"}, {"measurement": "T/C", "setting": "endpoint: median tumor weight (est.), dose: 200.0 mg/kg/injection, schedule: Q07DX005 (ip), vehicle: saline", "value": "27 % of control and 46 % of control"}, {"measurement": "T/C", "setting": "endpoint: median tumor weight (est.), dose: 400.0 mg/kg/injection, schedule: Q07DX005 (ip), vehicle: saline", "value": "5 % of control and 11 % of control"}]}
{"molecule": "CN(C)c1ccc2c(N(C)C)cc(N(C)C)nc2c1", "values": [{"measurement": "T/C", "setting": "endpoint: median tumor weight (est.), dose: 3.12 mg/kg/injection, schedule: Q07DX005 (ip), vehicle: Klucel (hydroxypropylcellulose) (HPC)", "value": "58 % of control"}, {"measurement": "T/C", "setting": "endpoint: median tumor weight (est.), dose: 6.25 mg/kg/injection, schedule: Q07DX005 (ip), vehicle: Klucel (hydroxypropylcellulose) (HPC)", "value": "78 % of control"}]}
